Experimental data reported in US20210380606A1, “5-AZAINDAZOLE DERIVATIVES AS ADENOSINE RECEPTOR ANTAGONISTS” (Merck Patent GmbH, priority 2018, published 2021).
Read-outs that look alike come from different tables or passages of the source.

How the values were obtained:
human A2A receptors = molecular target: T1, human A2A receptors (Homo sapiens, UniProt P29274); test: Functional human A2A receptor activity, recombinant HEK293 cells, cAMP (HTRF); format: cell-based
T1 construct: expressed in transfected cells; host or cells: HEK293
T1 sequence (P29274 whole entry): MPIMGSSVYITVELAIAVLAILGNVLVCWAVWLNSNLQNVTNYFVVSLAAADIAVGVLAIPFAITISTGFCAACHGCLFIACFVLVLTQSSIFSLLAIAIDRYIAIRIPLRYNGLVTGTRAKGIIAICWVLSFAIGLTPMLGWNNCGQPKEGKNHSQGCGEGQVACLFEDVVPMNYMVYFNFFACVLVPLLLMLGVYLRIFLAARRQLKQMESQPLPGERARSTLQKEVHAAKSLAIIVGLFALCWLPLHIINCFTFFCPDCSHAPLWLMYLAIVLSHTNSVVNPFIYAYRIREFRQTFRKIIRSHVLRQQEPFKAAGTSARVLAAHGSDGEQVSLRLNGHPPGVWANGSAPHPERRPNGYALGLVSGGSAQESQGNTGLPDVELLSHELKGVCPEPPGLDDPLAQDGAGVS
Method: (§1) The functional activities of human A2A and A2B receptors were determined by quantification of cAMP, being the second messenger for adenosine receptors.
(§2) After a 15 min incubation, HTRF reagents (cAMP dynamic 2, Cis Bio) were added and the cellular cAMP levels were determined using the ENVISION (Perkin Elmer) plate reader.

human A2B receptors = molecular target: T2, human A2B receptors (Homo sapiens, UniProt P29275); test: Functional human A2B receptor activity, recombinant HEK293 cells, cAMP (HTRF); format: cell-based
T2 construct: expressed in transfected cells; host or cells: HEK293
T2 sequence (P29275 1-332): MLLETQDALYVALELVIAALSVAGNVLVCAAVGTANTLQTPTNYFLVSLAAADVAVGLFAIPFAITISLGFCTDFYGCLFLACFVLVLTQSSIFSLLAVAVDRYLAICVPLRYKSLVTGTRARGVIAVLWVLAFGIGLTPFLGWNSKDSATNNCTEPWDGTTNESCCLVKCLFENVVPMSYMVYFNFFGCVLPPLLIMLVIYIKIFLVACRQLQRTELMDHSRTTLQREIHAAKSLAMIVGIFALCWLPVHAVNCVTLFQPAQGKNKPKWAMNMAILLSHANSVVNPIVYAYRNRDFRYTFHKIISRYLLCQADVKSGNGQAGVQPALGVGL
Method: as §1, §2

[1] = recombinant HEK293 cells expressing human A2A receptor, agonist NECA, cAMP HTRF, 15 min incubation, read-out: A2A (Category)
[2] = recombinant HEK293 cells expressing human A2B receptor, agonist NECA, cAMP HTRF, 15 min incubation, read-out: A2B (Category)

Row | SMILES | IC50 (human A2A receptors; read-out: A2A (Category)) [nM] | IC50 (human A2B receptors; read-out: A2B (Category)) [nM] | also measured
1 | N#Cc1ccc2ncc(-c3nn(CC(F)(F)F)c4cc(C(=O)N5CCCOCC5)ncc34)n2c1 [Compound 81, 3-[6-(1,4-Oxazepane-4-carbonyl)-1-(2,2,2-trifluoro-ethyl)-1H-pyrazolo[4,3-c]pyridin-3-yl]-imidazo[1,2-a]pyridine-6-carbonitrile] | < 100 | < 1000 | 
2 | O=C(c1ccc2c(-c3cnc4c(F)cc(F)cn34)nn(CC(F)(F)F)c2c1)N1CCCCCC1 [analogue to No. 60, reference compound] |  |  | IC50 (human A2A receptors; read-out: Functional A2A receptor activity, HEK293, cAMP, IC50): < 100 nM; IC50 (human A2B receptors; read-out: Functional A2B receptor activity HEK293, cAMP IC50): < 1000 nM
3 | O=C(c1cc2c(cn1)c(-c1cnc3c(F)cc(F)cn13)nn2CC(F)(F)F)N1CC2COCC2C1 (stereo not drawn) [Compound 154, [3-(6,8-Difluoro-imidazo[1,2-a]pyridin-3-yl)-1-(2,2,2-trifluoro-ethyl)-1H-pyrazolo[4,3-c]pyridin-6-yl]-(tetrahydro-furo[3,4-c]pyrrol-5-yl)-methanone] |  |  | IC50 (human A2A receptors; [1]): < 100 nM; IC50 (human A2B receptors; [2]): < 1000 nM
4 | O=C(c1cc2c(cn1)c(-c1cnc3ccc(F)cn13)nn2CC(F)(F)F)N1CCCCCC1 [Compound 44, Azepan-1-yl-[3-(6-fluoro-imidazo[1,2-a]pyridin-3-yl)-1-(2,2,2-trifluoro-ethyl)-1H-pyrazolo[4,3-c]pyridin-6-yl]-methanone] | < 100 | < 100 | 
5 | O=C(c1cc2c(cn1)c(-c1cnc3c(F)cc(F)cn13)nn2CC(F)(F)F)N1CCCCCC1 [Compound 60, Azepan-1-yl-[3-(6,8-difluoro-imidazo[1,2-a]pyridin-3-yl)-1-(2,2,2-trifluoro-ethyl)-1H-pyrazolo[4,3-c]pyridin-6-yl]-methanone] | < 100 | < 100 | 
6 | O=C(c1cc2c(cn1)c(-c1cnn3ccccc13)nn2CC(F)(F)F)N1CCCOCC1 [Compound 95, 1,4-Oxazepan-4-yl-[3-pyrazolo[1,5-a]pyridine-3-yl-1-(2,2,2-trifluoro-ethyl)-1H-pyrazolo[4,3-c]pyridine-6-yl]-methanone] | < 100 | < 1000 | 
7 | NC(=O)c1ccc2occ(-c3nn(CC(F)(F)F)c4cc(C(=O)N5CCCOCC5)ncc34)c2c1 [Compound 237, 3-[6-(1,4-oxazepane-4-carbonyl)-1-(2,2,2-trifluoroethyl)pyrazolo[4,3-c]pyridin-3-yl]benzofuran-5-carboxamide] | < 100 | < 1000 | 
8 | CC1(O)CCN(C(=O)c2cc3c(cn2)c(-c2coc4ccc(F)cc24)nn3CC(F)(F)F)CC1 [Compound 116, [3-(5-fluorobenzofuran-3-yl)-1-(2,2,2-trifluoroethyl)pyrazolo[4,3-c]pyridin-6-yl]-(4-hydroxy-4-methyl-1-piperidyl)methanone] | < 100 | < 100 | 
9 | CC1(O)CC2CC1CN2C(=O)c1cc2c(cn1)c(-c1coc3ccccc13)nn2CC(F)(F)F (stereo not drawn) [Compound 211, [3-Benzofuran-3-yl-1-(2,2,2-trifluoro-ethyl)-1H-pyrazolo[4,3-c]pyridin-6-yl]-(5-endo-hydroxy-5-exo-methyl-2-aza-bicyclo[2.2.1]hept-2-yl)-methanone] | < 100 | < 1000 | 
10 | O=C(c1cc2c(cn1)c(-n1cnc3ccc(F)cc31)nn2CC(F)(F)F)N1CCCOCC1 [Compound 252, [3-(6-fluorobenzimidazol-1-yl)-1-(2,2,2-trifluoroethyl)pyrazolo[4,3-c]pyridin-6-yl]-(1,4-oxazepan-4-yl)methanone] | < 100 | < 100 | 
11 | CS(=O)(=O)Cn1nc(-c2coc3ccccc23)c2cnc(C(=O)N3CCCC(F)(F)C3)cc21 [Compound 39, (3-Benzofuran-3-yl-1-methanesulfonylmethyl-1H-pyrazolo[4,3-c]pyridin-6-yl)-(3,3-difluoro-piperidin-1-yl)-methanone] | < 100 | < 100 | 
12 | CC1(O)C2CCC1CN(C(=O)c1cc3c(cn1)c(-c1coc4ccccc14)nn3CS(C)(=O)=O)C2 (stereo not drawn) [Compound 28, (3-Benzofuran-3-yl-1-methanesulfonylmethyl-1H-pyrazolo[4,3-c]pyridin-6-yl)-(8-endo-hydroxy-8-exo-methyl-d3-3-aza-bicyclo[3.2.1]oct-3-yl)-methanone] |  |  | IC50 (human A2A receptors; [1]): < 100 nM; IC50 (human A2B receptors; [2]): < 100 nM
